These results are taken from patent publication US12552825B2 (Zikani Therapeutics, Inc., priority 2019, dated 2026).

Converted amounts (≈) assume the structure as drawn.

Format in all cases: cell-based
Assay [1] deals with S. aureus MP-12. In words: microbe, parasite or virus in culture. Particulars: Staphylococcus aureus, MP12, read-out: MIC S. aureus MP-12.
Assay [2] deals with E. coli MP-4. In words: MIC determination by CLSI broth dilution, E. coli MP-4. Particulars: strain MP-4; for MIC: Escherichia coli, MP4, CLSI broth dilution.
Assay [3] has as its system K. pneumoniae MP-546. In words: MIC determination by CLSI broth dilution, K. pneumoniae MP-546. Particulars: strain MP-546; for MIC: Klebsiella pneumoniae, MP546, CLSI broth dilution. In general terms: Broth dilution looks for growth in wells or tubes with falling amounts of substance.
The subject of assay [4] is K. pneumoniae MP-648. In words: MIC determination by CLSI broth dilution, K. pneumoniae MP-648. Particulars: strain MP-648; for MIC: Klebsiella pneumoniae, MP648, CLSI broth dilution.
For assay [5], the system named is P. aeruginosa MP-3. Nature of the assay: MIC determination by CLSI broth dilution, P. aeruginosa MP-3. Conditions: Pseudomonas aeruginosa, MP3, strain MP-3.
Assay [6] relates to A. baumannii MP-15. In words: MIC determination by CLSI broth dilution, A. baumannii MP-15. Particulars: Acinetobacter baumannii, MP15, strain MP-15, read-out: MIC A. baumanii MP-15.

On to `CO[C@]1(C)C[C@@H](C)CN(C)[C@H]([C@@H](O)C2CCN(CC3CC3)CC2)COC(=O)C(C)(C)C(=O)[C@H](C)[C@H]1O[C@@H]1O[C@H](C)C[C@H](N(C)C)[C@H]1O` [Compound 26], for which the MIC in assay [1], in assay [5] and in assay [6] was above 32 µg/mL each time. In assay [2] (CLSI broth dilution), the “MIC E. coli MP-4” value is on record as “+++ (values less than or equal to 4 mg/L)”. Also, in assay [3] (CLSI broth dilution), the “MIC K. pneumoniae MP-546” value was “++ (values of greater than 4 mg/L and less than or equal to 32 mg/L)”. For the same molecule, the “MIC K. pneumoniae MP-648” value in assay [4] (CLSI broth dilution) is “++ (values of greater than 4 mg/L and less than or equal to 32 mg/L)”.

Consider `CCCCCCCN1CCC(C[C@@H]2COC(=O)[C@@](C)(CCC)C(=O)[C@H](C)[C@@H](O[C@@H]3O[C@H](C)C[C@H](N(C)C)[C@H]3O)[C@](C)(OC)C[C@@H](C)CN2C)CC1` [Compound 174], for which the MIC was 4 to 32 µg/mL (≈ 5.52 to 44.2 µM) in assay [1]; below 4 µg/mL in assay [2]; 4 to 32 µg/mL (≈ 5.52 to 44.2 µM) in assay [3]; 4 to 32 µg/mL (≈ 5.52 to 44.2 µM) in assay [4]; above 32 µg/mL in assay [5]; above 32 µg/mL in assay [6].

As to `CO[C@]1(C)C[C@@H](C)CN(C)[C@H](CC2CCN(Cc3ccco3)CC2)COC(=O)C(C)(C)C(=O)[C@H](C)[C@H]1O[C@@H]1O[C@H](C)C[C@H](N(C)C)[C@H]1O` [Compound 62], the MIC in assay [1] was 4 to 32 µg/mL (≈ 5.9 to 47.2 µM); in assay [2] it was below 4 µg/mL; in assay [3], below 4 µg/mL; in assay [4] it was below 4 µg/mL; in assay [5], above 32 µg/mL; in assay [6], 4 to 32 µg/mL (≈ 5.9 to 47.2 µM).

On to `CO[C@]1(C)C[C@@H](C)CN(C)[C@@H]([C@H](O)C2CCN(CC3CCCCC3)CC2)COC(=O)C(C)(C)C(=O)[C@H](C)[C@H]1O[C@@H]1O[C@H](C)C[C@H](N(C)C)[C@H]1O` [Compound 25], for which the MIC in assay [1] was above 32 µg/mL; in assay [2], below 4 µg/mL; in assay [3], 4 to 32 µg/mL (≈ 5.63 to 45.1 µM); in assay [4] it was 4 to 32 µg/mL (≈ 5.63 to 45.1 µM); in assay [5], above 32 µg/mL; in assay [6], above 32 µg/mL.

As to `CO[C@H](CCN1CCCC1)[C@@H]1COC(=O)C(C)(C)C(=O)[C@H](C)[C@@H](O[C@@H]2O[C@H](C)C[C@H](N(C)C)[C@H]2O)[C@](C)(OC)C[C@@H](C)CN1C` [Compound 77], the MIC was 4 to 32 µg/mL (≈ 6.23 to 49.9 µM) in assay [1]; below 4 µg/mL in assay [2]; below 4 µg/mL in assay [3]; below 4 µg/mL in assay [4]; above 32 µg/mL in assay [5]; above 32 µg/mL in assay [6].

For `CCCN1CCC(C[C@@H]2COC(=O)C(C)(C)C(=O)[C@H](C)[C@@H](O[C@@H]3O[C@H](C)C[C@H](N(C)C)[C@H]3O)[C@](C)(OC)C[C@@H](C)CN2CCC)CC1` [Compound 96, (3R,6R,8R,9R,10R)-9-(((2S,3R,4S,6R)-4-(dimethylamino)-3-hydroxy-6-methyltetrahydro-2H-pyran-2-yl)oxy)-8-methoxy-6,8,10,12,12-pentamethyl-4-propyl-3-((1-propylpiperidin-4-yl)methyl)-1-oxa-4-azacyclotridecane-11,13-dione], the MIC was 4 to 32 µg/mL (≈ 5.99 to 47.9 µM) in assay [1]; below 4 µg/mL in assay [2]; below 4 µg/mL in assay [3]; 4 to 32 µg/mL (≈ 5.99 to 47.9 µM) in assay [4]; above 32 µg/mL in assay [5]; above 32 µg/mL in assay [6].

Regarding `CO[C@]1(C)C[C@@H](C)CN(C)[C@@H](CCCN2CCC(F)CC2)COC(=O)C(C)(C)C(=O)[C@H](C)[C@H]1O[C@@H]1O[C@H](C)C[C@H](N(C)C)[C@H]1O` [Compound 103, (3S,6R,8R,9R,10R)-9-(((2S,3R,4S,6R)-4-(dimethylamino)-3-hydroxy-6-methyltetrahydro-2H-pyran-2-yl)oxy)-3-(3-(4-fluoropiperidin-1-yl)propyl)-8-methoxy-4,6,8,10,12,12-hexamethyl-1-oxa-4-azacyclotridecane-11,13-dione], the MIC in assay [1] was 4 to 32 µg/mL (≈ 6.21 to 49.7 µM); in assay [2], below 4 µg/mL; in assay [3], below 4 µg/mL; in assay [4] it was below 4 µg/mL; in assay [5], above 32 µg/mL; in assay [6], above 32 µg/mL.

For the molecule `CCN(C)CC[C@@H](O)[C@@H]1COC(=O)C(C)(C)C(=O)[C@H](C)[C@@H](O[C@@H]2O[C@H](C)C[C@H](N(C)C)[C@H]2O)[C@](C)(OC)C[C@@H](C)CN1C` [Compound 3], the MIC in assay [1] is 4 to 32 µg/mL (≈ 6.5 to 52 µM); in assay [2] it was below 4 µg/mL; in assay [3], below 4 µg/mL; in assay [4], below 4 µg/mL; in assay [5], above 32 µg/mL; in assay [6] it was above 32 µg/mL.

Regarding `CCCCCCCN1CCC(C[C@@H]2COC(=O)[C@@](C)(Cc3ccccc3)C(=O)[C@H](C)[C@@H](O[C@@H]3O[C@H](C)C[C@H](N(C)C)[C@H]3O)[C@](C)(OC)C[C@@H](C)CN2C)CC1` [Compound 171], the MIC is 4 to 32 µg/mL (≈ 5.18 to 41.4 µM) in assay [1]; below 4 µg/mL in assay [2]; 4 to 32 µg/mL (≈ 5.18 to 41.4 µM) in assay [3]; 4 to 32 µg/mL (≈ 5.18 to 41.4 µM) in assay [4]; above 32 µg/mL in assay [5]; above 32 µg/mL in assay [6].

Regarding `CO[C@]1(C)C[C@@H](C)CN(C)[C@@H](CCCN(C)C(C)(C)C)COC(=O)C(C)(C)C(=O)[C@H](C)[C@H]1O[C@@H]1O[C@H](C)C[C@H](N(C)C)[C@H]1O` [Compound 7, (3S,6R,8R,9R,10R)-3-(3-(tert-butyl(methyl)amino)propyl)-9-(((2S,3R,4S,6R)-4-(dimethylamino)-3-hydroxy-6-methyltetrahydro-2H-pyran-2-yl)oxy)-8-methoxy-4,6,8,10,12,12-hexamethyl-1-oxa-4-azacyclotridecane-11,13-dione], the MIC is 4 to 32 µg/mL (≈ 6.37 to 51 µM) in assay [1]; below 4 µg/mL in assay [2]; 4 to 32 µg/mL (≈ 6.37 to 51 µM) in assay [3]; below 4 µg/mL in assay [4]; above 32 µg/mL in assay [5]; above 32 µg/mL in assay [6].

In the case of `CO[C@]1(C)C[C@@H](C)CN(C)[C@@H](CCCN2CCC[C@H]2C)COC(=O)C(C)(C)C(=O)[C@H](C)[C@H]1O[C@@H]1O[C@H](C)C[C@H](N(C)C)[C@H]1O` [Compound 122, (3S,6R,8R,9R,10R)-9-(((2S,3R,4S,6R)-4-(dimethylamino)-3-hydroxy-6-methyltetrahydro-2H-pyran-2-yl)oxy)-8-methoxy-4,6,8,10,12,12-hexamethyl-3-(3-((R)-2-methylpyrrolidin-1-yl)propyl)-1-oxa-4-azacyclotridecane-11,13-dione], the MIC is 4 to 32 µg/mL (≈ 6.39 to 51.1 µM) in assay [1]; below 4 µg/mL in assay [2]; below 4 µg/mL in assay [3]; below 4 µg/mL in assay [4]; above 32 µg/mL in assay [5]; above 32 µg/mL in assay [6].

With `C=C(C[C@@H]1COC(=O)C(C)(C)C(=O)[C@H](C)[C@@H](O[C@@H]2O[C@H](C)C[C@H](N(C)C)[C@H]2O)[C@](C)(OC)C[C@@H](C)CN1C)CN(CCC)CCC` [Compound 2], the MIC is above 32 µg/mL in assay [1]; 4 to 32 µg/mL (≈ 6.12 to 48.9 µM) in assay [2]; above 32 µg/mL in assay [3]; above 32 µg/mL in assay [4]; above 32 µg/mL in assay [5]; above 32 µg/mL in assay [6].

On to `CO[C@]1(C)C[C@@H](C)CN(C)[C@@H](CCCO)COC(=O)C(C)(C)C(=O)[C@H](C)[C@H]1O[C@@H]1O[C@H](C)C[C@H](N(C)C)[C@H]1O` [Compound 4, (3S,6R,8R,9R,10R)-9-(((2S,3R,4S,6R)-4-(dimethylamino)-3-hydroxy-6-methyltetrahydro-2H-pyran-2-yl)oxy)-3-(3-hydroxypropyl)-8-methoxy-4,6,8,10,12,12-hexamethyl-1-oxa-4-azacyclotridecane-11,13-dione], for which the MIC in assay [1] was above 32 µg/mL; in assay [2], below 4 µg/mL; in assay [3], 4 to 32 µg/mL (≈ 7.16 to 57.3 µM); in assay [4], 4 to 32 µg/mL (≈ 7.16 to 57.3 µM); in assay [5], above 32 µg/mL; in assay [6], above 32 µg/mL.
